Test results published in article PMC11447909, “Substrate Specificity of a Methyltransferase Involved in the Biosynthesis of the Lantibiotic Cacaoidin” (Biochemistry, 2024).
Bridge positions count the residues as written; N and C are the ends. Square brackets hold non-standard residues; d marks the D form. Ends that are not written are not given here. Abu = CC[C@H](N)C(=O)O; Dhb = C/C=C(\N)C(=O)O; Dha = C=C(N)C(=O)O

Key:
CaoSC = assay: In vitro methylation by His6-CaoSC with SAM (MALDI-TOF MS); format: biochemical, Streptomyces cacaoi CA-170360; details: 50 μM peptide, 5 μM His6-CaoSC, 1 mM SAM, 20 mM HEPES pH 7.5, overnight, 37 °C
Protocol: For methylation, the 50 μL assay contained 50 μM peptide, 5 μM His6–CaoSC, and 1 mM SAM in 20 mM HEPES buffer (pH 7.5). After overnight reaction at 37 °C, the proteins were denatured by adding 5 μL of 2% TFA and centrifuged for 10 min at 4500 rpm in a microcentrifuge at room temperature. The supernatant was desalted using an EMD Millipore C18 ziptip, and the peptide was eluted and analyzed by MALDI-TOF MS as described above.

[1] = biological target: His6-CaoSC (methyltransferase of the cacaoidin biosynthetic gene cluster) (Streptomyces cacaoi CA-170360); assay: SEC; analytical SEC of purified His6-tagged CaoSC

Substance: nisin (I[Dhb]AI[Dha]LC[Abu]PGCK[Abu]GALMGCNMK[Abu]A[Abu]CHCSIHV[Dha]K; thioether 8-11, 13-19, 23-26, 25-28, 3-7; not fully specified (residues 7, 11, 19, 26, 28); UniProt P13068 24-57, looked up) [class I lanthipeptide, 34 residues, three dehydroamino acids, five Lan/MeLan rings; purchased from Sigma-Aldrich]
- methylation by CaoSC (number of methyl groups installed at N-terminus) (CaoSC): monomethylated

Substance: His6-CaoSC (methyltransferase of the cacaoidin biosynthetic gene cluster) (enzyme)
- stoichiometry N [1]: 2

Substance: A[Dha]APATIK [synthetic 8-residue peptide with a dehydroamino acid at position 2]
- methylation by CaoSC (number of methyl groups installed at N-terminus) (CaoSC): not accepted
